From paper PMC8875894, “Dabigatran Acylglucuronide, the Major Metabolite of Dabigatran, Shows a Weaker Anticoagulant Effect than Dabigatran” (Pharmaceutics, 2022) come the findings set out here.

The assay has as its target T1, thrombin (Homo sapiens, UniProt P00734).
T1 construct: gene F2
As to the kind of experiment: thrombin generation assay in human plasma (fluorogenic Z-Gly-Gly-Arg-AMC, AUC); thrombin time prolonged.

What is called IC50 is the concentration needed to halve the response being measured. The compound `Cn1c(CNc2ccc(C(=N)N)cc2)nc2cc(C(=O)N(CCC(=O)O[C@@H]3O[C@H](C(=O)O)[C@@H](O)[C@H](O)[C@H]3O)c3ccccn3)ccc21` [DABG, dabigatran acylglucuronide] gave an IC50 of 435 nM.
